Data reported in publication PMC4718634, “Murine GPRC6A Mediates Cellular Responses to L-Amino Acids, but Not Osteocalcin Variants” (PLoS ONE, 2016).
Entries after “also recorded” stand apart in the source; their conditions may differ.

How the values were obtained:
MIN6 cells = assay: Insulin release from MIN6 cells; assay type: cell-based, murine
In short: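 After 72 h culture and 2 h glucose-free deprivation, cells exposed to compound for 2 h at 37°C in Krebs buffer pH 7.4 with 2 mM or 16.7 mM glucose. Secreted insulin measured by ELISA, normalised to vehicle at matching glucose; LogEC50 from three- or four-parameter logistic fit.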

mGPRC6A (mouse GPRC6A) = molecular target: T1, mGPRC6A (mouse GPRC6A) (Mus musculus, UniProt Q8K4Z6); assay: Cyclic AMP accumulation, FlpIn-TREx-HEK293-mGPRC6A cells; assay type: cell-based
T1 sequence (Q8K4Z6 21-928): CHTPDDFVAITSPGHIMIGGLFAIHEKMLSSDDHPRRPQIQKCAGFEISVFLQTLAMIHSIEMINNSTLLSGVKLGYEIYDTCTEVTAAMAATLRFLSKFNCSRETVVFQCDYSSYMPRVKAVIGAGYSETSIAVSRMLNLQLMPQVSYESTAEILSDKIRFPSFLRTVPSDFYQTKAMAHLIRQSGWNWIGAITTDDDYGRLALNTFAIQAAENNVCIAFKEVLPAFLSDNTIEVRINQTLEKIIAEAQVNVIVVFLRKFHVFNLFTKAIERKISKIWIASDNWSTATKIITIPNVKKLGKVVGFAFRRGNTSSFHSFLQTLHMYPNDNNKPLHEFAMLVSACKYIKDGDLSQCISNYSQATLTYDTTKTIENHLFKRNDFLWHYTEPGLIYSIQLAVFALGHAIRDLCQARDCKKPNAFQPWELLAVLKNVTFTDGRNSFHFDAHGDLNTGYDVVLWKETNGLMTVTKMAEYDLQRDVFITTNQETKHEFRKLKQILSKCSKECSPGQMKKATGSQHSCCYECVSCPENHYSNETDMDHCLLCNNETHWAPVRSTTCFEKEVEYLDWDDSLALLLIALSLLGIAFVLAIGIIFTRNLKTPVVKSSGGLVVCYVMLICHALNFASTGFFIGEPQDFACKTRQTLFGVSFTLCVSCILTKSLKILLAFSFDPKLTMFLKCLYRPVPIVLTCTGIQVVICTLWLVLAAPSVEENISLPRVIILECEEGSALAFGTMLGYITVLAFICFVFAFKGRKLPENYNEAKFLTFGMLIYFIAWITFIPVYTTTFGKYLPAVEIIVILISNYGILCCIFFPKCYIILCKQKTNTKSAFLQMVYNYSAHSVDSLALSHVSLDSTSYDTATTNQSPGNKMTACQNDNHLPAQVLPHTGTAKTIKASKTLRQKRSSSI
Method: pcDNA 5/FRT/TO constructs were isogenically integrated into a FlpIn-TREx-HEK293 cell line (Life Technologies). FlpIn-TREx-HEK293-mGPRC6A and FlpIn-TREx-HEK293-hGPRC6A cells were then selected using 600 μg/ml hygromycin and 5 μg/ml blasticidin and grown in culture medium consisting of Dulbecco’s Modified Eagle Medium (DMEM), supplemented with 10% (v/v) foetal bovine serum (FBS) at 37°C in 5% CO2 and were sub-cultured in a 1:3 ratio every 3–4 days. Cells were cultured overnight in the presence of 1 μg/ml tetracycline to induce GPRC6A expression. […] 48 h after transfection, cells were selected using 3 μg/ml puromycin and grown as above.
HEK293-mGPRC6A cells were seeded at a density of 10^5 cells per well into PDL-coated 96-well plates and incubated overnight in DMEM, supplemented with 10% FBS (v/v) at 37°C in 5% CO2. Cells were then incubated in 90 μl of stimulation buffer (HBSS containing 5 mM HEPES, 0.1% BSA (w/v), 0.5 mM IBMX; pH 7.4) for 30 min at 37°C. Test compounds (10 μl at 10 x final) were added and cells were incubated for an additional 30 min at 37°C. The medium was removed and cells were incubated in 50 μl of ice-cold 100% ethanol. Once evaporated, 100 μl of lysis buffer (5 mM HEPES, 0.1% BSA (w/v), 0.3% Tween-20; pH 7.4) was added to the cells and samples were stored at -20°C until further analysis. Samples were analysed using the Alphascreen® cAMP assay kit (Perkin Elmer) following manufacturer instructions. Briefly, 10 μl of lysates were added to a 384-well Optiplate. After addition of 5 μl of acceptor bead mix, plate was incubated at RT for 30 min followed by addition of 15 μl of donor bead mix. After overnight (16 h) incubation at RT, plates were read using the Envision plate reader.

Row | cAMP response (summary) (mGPRC6A (mouse GPRC6A); S1 Table) | Compound | insulin secretion, OCN (MIN6 cells; mouse OCN 0.03–30 ng/mL, 0.03–100 ng/mL (Fig 6B legend), low and high glucose) | glucose-sensitive insulin secretion (MIN6 cells; L-ornithine 20 mM, 16.7 mM glucose, P < 0.01 vs Vehicle, 2 h, ELISA, Fig 6B) | stimulation of cAMP accumulation (mGPRC6A (mouse GPRC6A); 30 min, 0.5 mM IBMX, Alphascreen, Fig 3A) | inhibition of forskolin-stimulated cAMP (mGPRC6A (mouse GPRC6A); forskolin 3 μM, Fig 3A)
1 | no response | OCN: osteoblast-derived peptide, osteocalcin; variant not specified at the place (YLYQWLGAPVPYPDPLEPRREVCELNPDCDELADHIGFQEAYRRFYGPV; UniProt P02818 52-100, looked up) | failed to induce GSIS | – | – | –
2 | – | NCCC[C@H](N)C(=O)O [L-ornithine] | – | significantly increased glucose-sensitive insulin secretion; also recorded: could be increased by L-ornithine | no detectable modulation of cAMP accumulation | neither L-ornithine nor OCN variants inhibited cAMP levels stimulated by forskolin; also recorded: Neither L-ornithine nor OCN variants inhibit
